The source made the active and inactive calls. The calls are words filed in the database; no cut-off is given here.

Data set [1] concerns Hepatitis B virus. As to the kind of experiment: Antiviral activity against HBV infected in CHB patient assessed as reduction in viral RNA level at 250 mg, po administered daily from 1 to 84 days in presence of RNAi component and NA. It counts as functional, organism-based. The conditions noted are these: time 1-84 day.
Data set [2] has as its system Hepatitis B virus. Kind of data set: Antiviral activity against HBV infected in CHB patient assessed as reduction in HBeAg level at 250 mg, po administered daily from 1 to 84 days in presence of RNAi component and NA. As to conditions: time 1-84 day. The data set is classed as functional, organism-based.
The subject of data set [3] is Hepatitis B virus. As to the kind of experiment: Antiviral activity against HBV infected in CHB patient assessed as reduction in viral DNA level at 250 mg, po administered daily from 1 to 84 days in presence of RNAi component and NA. As to conditions: time 1-84 day. The data set is classed as functional, organism-based.
Data set [4] concerns Hepatitis B virus. Kind of data set: Antiviral activity against HBV infected in HBeAg-positive CHB patient assessed as reduction in HBsAg level at 250 mg, po administered daily from 1 to 84 days in presence of RNAi component and NA. The conditions noted are these: time 1-84 day. The data set is classed as functional, organism-based.
Data set [5] concerns Hepatitis B virus. As to the kind of experiment: Antiviral activity against HBV infected in CHB patient assessed as reduction in HBsAg level at 250 mg, po administered daily from 1 to 84 days in presence of RNAi component and NA relative to control. It counts as functional. Set-up: scale not given: the % may be the effect or the level left. As to conditions: time 1-84 day.
The test system of data set [6] is Hepatitis B virus. As to the kind of experiment: Antiviral activity against HBV infected in CHB patient assessed as reduction in HBcrAg level at 250 mg, po administered daily from 1 to 84 days in presence of RNAi component and NA. It counts as functional, organism-based. As to conditions: time 1-84 day.
Data set [7] concerns Hepatitis B virus. Kind of data set: Antiviral activity against HBV infected in HBeAg-negative CHB patient assessed as reduction in HBsAg level at 250 mg, po administered daily from 1 to 84 days in presence of RNAi component and NA. The data set is classed as functional, organism-based. As to conditions: time 1-84 day.
Data set [8] can be described thus: Toxicity in HBV infected CHB patient at 250 mg, po administered daily from 1 to 84 days in presence of RNAi component and NA. The data set is classed as organism-based. As to conditions: human, in vivo, time 1-84 day.

On to `C[C@H](NS(=O)(=O)c1cc(C(=O)Nc2ccc(F)c(C#N)c2)n(C)c1)C(F)(F)F` [BERSACAPAVIR], for which the outcome in data set [1], in data set [2], in data set [3], in data set [4], in data set [6] and in data set [7] was Active. Further, the figures for the Activity in data set [5] and in data set [8] were 90% and “Non-Toxic”, respectively.

For the origin of these results see ChEMBL document CHEMBL4706756, “Combination Therapy of RNA Interference and Small Molecules for Treating Hepatitis B Virus Infection” (ACS Med Chem Lett, 2021).
